Like-named read-outs stand apart in the source and are kept apart here.

Results on two molecules are retold here after article PMC5242521 (PLoS ONE, 2017).

For one data set, the target named is T1, BCRP (Homo sapiens, UniProt Q9UNQ0).
T1 construct: expressed in transfected cells; host or cells: HEK293
T1 sequence (Q9UNQ0 1-655): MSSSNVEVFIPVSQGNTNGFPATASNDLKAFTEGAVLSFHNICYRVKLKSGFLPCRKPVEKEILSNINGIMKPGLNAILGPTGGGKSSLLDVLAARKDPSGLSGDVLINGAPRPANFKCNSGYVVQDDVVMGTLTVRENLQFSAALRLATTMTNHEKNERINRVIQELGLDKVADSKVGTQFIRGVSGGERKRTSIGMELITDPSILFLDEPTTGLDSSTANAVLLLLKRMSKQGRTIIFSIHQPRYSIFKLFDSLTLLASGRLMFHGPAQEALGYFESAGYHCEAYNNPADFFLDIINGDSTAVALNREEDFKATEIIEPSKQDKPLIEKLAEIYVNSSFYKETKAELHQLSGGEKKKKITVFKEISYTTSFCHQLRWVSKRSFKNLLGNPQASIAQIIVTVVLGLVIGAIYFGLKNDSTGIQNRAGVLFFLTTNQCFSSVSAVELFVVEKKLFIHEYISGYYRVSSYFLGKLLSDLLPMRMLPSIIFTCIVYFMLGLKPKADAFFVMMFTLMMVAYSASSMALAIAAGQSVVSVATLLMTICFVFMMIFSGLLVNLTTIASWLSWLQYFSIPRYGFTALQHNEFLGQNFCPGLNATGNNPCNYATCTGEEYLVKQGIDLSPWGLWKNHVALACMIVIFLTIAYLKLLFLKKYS
In words: BCRP activity: Hoechst 33342 retention in HEK-BCRP cells. The settings on record: for inhibition at 90 min, 100 μM: human. The class given is cell-based. On the procedure:
For retention assay (used for BCRP activity), HEK-BCRP cells cultured in 48-well plates were first loaded at 37°C with transport assay (200 μL/well) containing 16.2 μM Hoechst 33342 for 30 min. After washing twice in PBS (200 μL/well/washing), cells were reincubated in Hoechst 33342-free transport assay medium (200 μL/well) at 37°C for 90 min in the absence or presence of pyrethroids or of the BCRP reference inhibitor fumitremorgin C used at 10 μM. Cells were next lysed in distilled water (155 μL/well) after washing twice in PBS (200 μL/well/washing). The cell lysate was finally used for determining cellular protein content and intracellular retention of Hoechst 33342 (by spectrofluorimetry: excitation and emission wavelengths were 355 and 460 nm, respectively), as described above.
(§1) The initial tested concentration of pyrethroids was 100 μM.

The next data set has as its target P-gp (Homo sapiens, UniProt P08183). In words: P-gp activity: rhodamine 123 accumulation in MCF7R cells. The following applies: for inhibition at 100 μM: human, pH 7.4. As for the experimental part:
The effects of pyrethroids on activity of ABC and SLC transporters were determined through measuring cellular accumulation or retention of fluorescent or radiolabeled reference substrates for transporters, in the presence or absence of reference inhibitors, as previously described. The nature of cells and reference substrates and inhibitors used for transport assays are summarized in S3 Table.
For accumulation assays (performed for all transporters, excepted BCRP), transporter-expressing cells usually cultured in 48-well plates were first incubated at 37°C with reference substrates in the absence (control) or presence of pyrethroids or reference inhibitors, in a well-defined transport assay medium, consisting of 136 mM NaCl, 5.3 mM KCl, 1.1mM KH2PO4, 0.8 mM MgSO4, 1.8 mM CaCl2, 10 mM HEPES, 11 mM D-glucose and adjusted to pH = 7.4 (excepted for MATE transporter assays, for which pH was set to 8.4). The nature of substrates and reference inhibitors and the incubation times with substrates, that varied according to the transporter, were selected in agreement with previous studies and are indicated in S3 Table. The total incubation volume with substrates was 200 μL/well. After washing twice in phosphate-buffered saline (PBS) (200 μL/well/washing), cells were lysed in distilled water (155 μL/well). An aliquot of cell lysate (5 μL) was then taken for determining cellular protein content by the Bradford method. The rest of lysate (150 μL/well) was used for measuring intracellular accumulation of reference substrates by scintillation counting or spectrofluorimetry using a SpectraMax Gemini SX spectrofluorometer (Molecular Devices, Sunnyvale, CA, USA) (excitation and emission wavelengths were 485 and 535 nm, respectively, for rhodamine 123 and fluorescein, and 355 and 460 nm, respectively, for DAPI).
Intracellular concentrations of reference substrates were initially expressed as fluorescence arbitrary units (for fluorescent dye substrates) or as moles (for radiolabeled substrates) and normalized to cellular protein content, determined by the Bradford method. They were finally used for calculating percentage of transporter activity, according to the following equations [41, 45]: %ABCtransporter activity=([Substrateref inh]-[Substratepyrethroid])×100/([Substrateref inh]-[Substratecontrol]) (1) %SLC transporter activity=([Substratepyrethroid]-[Substratref inh])×100/([Substratecontrol]-[Substrateref inh]) (2) with [Substratepyrethroid] = cellular concentration of reference substrate in the presence of pyrethroid, [Substrateref inh] = cellular concentration of reference substrate in the presence of reference inhibitor and [Substratecontrol] = cellular concentration of reference substrate in control cells not exposed to pyrethroid or reference inhibitor.
The initial tested concentration of pyrethroids was 100 μM. […] Such concentrations were calculated using GraphPad Prism software (GraphPad Software, La Jolla, CA), through nonlinear regression based on the four parameter logistic function using the following equations: […]

The next data set deals with T2, MRP2 (Homo sapiens, UniProt Q92887).
T2 construct: multidrug resistance-associated protein (MRP) 2/ABCC2-expressing human hepatoma HuH-7 cells; endogenous in cells; host or cells: HuH-7 human hepatoma cells
The experiment in a line: MRP2 activity: CF accumulation in HuH-7 cells. The class given is cell-based. The settings on record: for inhibition at 100 μM: human, pH 7.4. As for the experimental part: as §1

P-gp, sequence (P08183 whole entry): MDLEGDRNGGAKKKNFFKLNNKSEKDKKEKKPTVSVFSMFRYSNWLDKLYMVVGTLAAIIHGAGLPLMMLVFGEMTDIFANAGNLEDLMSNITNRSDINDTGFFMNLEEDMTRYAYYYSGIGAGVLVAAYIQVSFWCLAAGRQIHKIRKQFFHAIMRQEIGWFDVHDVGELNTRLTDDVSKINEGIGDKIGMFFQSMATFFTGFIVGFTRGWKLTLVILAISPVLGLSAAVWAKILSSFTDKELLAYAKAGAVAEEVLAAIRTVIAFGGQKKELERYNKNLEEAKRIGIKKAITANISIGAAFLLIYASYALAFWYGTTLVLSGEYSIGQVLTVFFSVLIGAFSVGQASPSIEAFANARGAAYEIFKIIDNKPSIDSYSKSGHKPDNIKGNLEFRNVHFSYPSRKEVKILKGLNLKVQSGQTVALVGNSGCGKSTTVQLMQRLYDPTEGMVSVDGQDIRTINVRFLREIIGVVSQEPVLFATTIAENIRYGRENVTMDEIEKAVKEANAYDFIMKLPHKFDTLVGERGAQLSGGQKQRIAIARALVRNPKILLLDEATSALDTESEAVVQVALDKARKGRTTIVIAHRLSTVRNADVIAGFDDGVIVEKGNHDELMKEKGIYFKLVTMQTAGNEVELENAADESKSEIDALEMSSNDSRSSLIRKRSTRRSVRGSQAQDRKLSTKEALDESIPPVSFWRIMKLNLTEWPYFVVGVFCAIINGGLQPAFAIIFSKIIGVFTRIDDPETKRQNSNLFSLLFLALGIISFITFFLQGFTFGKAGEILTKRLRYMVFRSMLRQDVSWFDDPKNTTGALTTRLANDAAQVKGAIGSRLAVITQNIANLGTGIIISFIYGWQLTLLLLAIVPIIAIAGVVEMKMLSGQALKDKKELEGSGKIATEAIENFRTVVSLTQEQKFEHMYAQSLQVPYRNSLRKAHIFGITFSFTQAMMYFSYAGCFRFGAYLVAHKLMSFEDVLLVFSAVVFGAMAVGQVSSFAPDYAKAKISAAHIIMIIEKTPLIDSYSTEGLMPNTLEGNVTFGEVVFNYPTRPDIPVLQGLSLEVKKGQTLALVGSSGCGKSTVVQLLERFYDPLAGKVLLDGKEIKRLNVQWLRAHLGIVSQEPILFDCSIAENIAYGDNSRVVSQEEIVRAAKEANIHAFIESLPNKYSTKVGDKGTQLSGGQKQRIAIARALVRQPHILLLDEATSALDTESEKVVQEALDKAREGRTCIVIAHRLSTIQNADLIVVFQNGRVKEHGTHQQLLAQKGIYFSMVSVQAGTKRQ
T2 sequence (Q92887 whole entry): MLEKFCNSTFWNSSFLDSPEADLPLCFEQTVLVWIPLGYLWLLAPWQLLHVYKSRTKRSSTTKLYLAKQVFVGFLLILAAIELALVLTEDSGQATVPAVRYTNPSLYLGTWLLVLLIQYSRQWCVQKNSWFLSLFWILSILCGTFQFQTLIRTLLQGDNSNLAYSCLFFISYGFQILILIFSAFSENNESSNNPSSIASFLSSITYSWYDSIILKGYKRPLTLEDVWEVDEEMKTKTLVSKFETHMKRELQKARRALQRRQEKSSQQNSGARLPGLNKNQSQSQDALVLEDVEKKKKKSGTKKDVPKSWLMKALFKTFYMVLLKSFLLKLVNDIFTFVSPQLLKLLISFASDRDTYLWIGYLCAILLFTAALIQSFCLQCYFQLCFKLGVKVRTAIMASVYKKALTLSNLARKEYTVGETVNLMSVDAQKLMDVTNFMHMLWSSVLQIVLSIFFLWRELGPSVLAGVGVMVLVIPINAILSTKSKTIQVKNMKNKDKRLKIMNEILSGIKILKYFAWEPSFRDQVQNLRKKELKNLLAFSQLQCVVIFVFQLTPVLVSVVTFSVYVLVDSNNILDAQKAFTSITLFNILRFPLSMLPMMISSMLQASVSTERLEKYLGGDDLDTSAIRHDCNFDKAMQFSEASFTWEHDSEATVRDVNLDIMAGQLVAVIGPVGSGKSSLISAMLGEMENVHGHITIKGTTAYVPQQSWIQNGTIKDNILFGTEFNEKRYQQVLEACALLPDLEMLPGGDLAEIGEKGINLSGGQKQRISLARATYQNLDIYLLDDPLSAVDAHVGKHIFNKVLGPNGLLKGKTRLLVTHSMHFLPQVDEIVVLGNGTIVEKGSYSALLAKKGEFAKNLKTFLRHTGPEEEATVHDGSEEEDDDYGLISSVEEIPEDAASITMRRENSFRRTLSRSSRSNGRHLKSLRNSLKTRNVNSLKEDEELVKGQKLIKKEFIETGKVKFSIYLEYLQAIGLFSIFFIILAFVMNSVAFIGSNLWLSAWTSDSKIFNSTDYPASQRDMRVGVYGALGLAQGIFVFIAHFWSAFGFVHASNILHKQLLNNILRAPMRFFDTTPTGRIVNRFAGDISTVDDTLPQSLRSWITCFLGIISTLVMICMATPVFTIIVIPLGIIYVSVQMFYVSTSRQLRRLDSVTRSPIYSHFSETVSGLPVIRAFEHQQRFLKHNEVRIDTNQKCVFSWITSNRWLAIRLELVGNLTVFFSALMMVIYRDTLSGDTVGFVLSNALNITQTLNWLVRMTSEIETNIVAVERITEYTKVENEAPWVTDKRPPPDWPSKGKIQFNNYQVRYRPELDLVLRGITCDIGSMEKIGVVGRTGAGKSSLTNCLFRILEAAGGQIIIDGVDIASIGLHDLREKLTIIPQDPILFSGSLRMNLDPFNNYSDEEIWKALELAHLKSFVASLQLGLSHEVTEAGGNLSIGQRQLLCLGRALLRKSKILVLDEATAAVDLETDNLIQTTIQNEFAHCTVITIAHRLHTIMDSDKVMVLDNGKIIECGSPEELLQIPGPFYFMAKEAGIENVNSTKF

A word on the IC50: it is the concentration that inhibits the measured activity by half. A lower IC50 goes with higher potency. As a reminder, the inhibition is the percentage by which the read-out fell short of the control. For the molecule `C=CCC1=C(C)C(OC(=O)C2C(C=C(C)C)C2(C)C)CC1=O` (stereo not shown) [allethrin], on BCRP, the half-inhibitory concentration (IC50) was determined as 42.5 µM and the inhibition at 90 min, 100 μM worked out at 83.9%. At P-gp, the IC50 is greater than 100 µM and the inhibition at 100 μM came out at 32.7%. Besides, at MRP2, the 50% inhibitory concentration (IC50) is 48.2 µM and the inhibition at 100 μM worked out at 83.8%.
As for `CC(C)=CC1C(C(=O)OCN2C(=O)C3=C(CCCC3)C2=O)C1(C)C` (stereo not shown) [tetramethrin], the concentration for half-maximal inhibition (IC50) against BCRP is 72.5 µM; against P-gp, greater than 100 µM; at MRP2 it was 65.5 µM. The inhibition at 90 min, 100 μM on BCRP (pyrethroid 100 μM, HEK-BCRP cells, Hoechst 33342, read-out: inhibition of BCRP activity) came to 67.1%. In addition, the inhibition at 100 μM on P-gp is 24.5%; at MRP2 (pyrethroid 100 μM, HuH-7 cells, CF, read-out: inhibition of MRP2 activity), 58.3%. Moreover, the “effect on P-gp activity” value at P-gp (pyrethroid 100 μM) is “moderately inhibited”.
